Data set [1] concerns rat ventral mesencephalan dopaminergic neurons. Put plainly: [3H]Dopamine cell culture assay (6-OHDA neurotoxicity). Format: cell-based. The note with it: 6-OHDA 30 μM, uptake 22 hrs after exposure. As for the experimental part: Cultures of dopaminergic neurons were prepared according to a modification of the procedure described by Raymon and Leslie (J. Neurochem. 62:1015-1024, 1994). Time-mated pregnant rats were sacrificed on embyronic day 14-15 (crown rump length 11-12 mm) and the embryos removed by cesarean section. The ventral mesencephalon, containing the dopaminergic neurons, was dissected from each embryo. Tissue pieces from approximately 48 embryos were pooled and dissociated both enzymatically and mechanically. An aliquot from the resulting cell suspension was counted and the cells were plated in high glucose DMEM/F12 culture medium with 10% fetal bovine serum at a density of 1×10^5 cells/well of a Biocoat poly-D-lysine-coated 96-well plate. The day following plating was considered 1 day in vitro (DIV). Cells were maintained in a stable environment at 37° C., 95% humidity, and 5% CO2. A partial medium change was performed at 3 DIV. […]
[^3H]Dopamine uptake is used as a measure of the health and integrity of dopaminergic neurons in culture (Prochiantz et al., PNAS 76: 5387-5391, 1979). […] Briefly, cells treated with 6-OHDA in the presence and absence of 5-amino-anthra(9,1-cd)isothiazol-6-one were assessed in the uptake assay 22 hrs after exposure to 6-OHDA. […] Radioactivity was removed and the cultures were washed 3× with ice cold PBS. […]

Data set [2] can be described thus: Solubility in aqueous media (remark). Format: physicochemical.
A short description of data set [3]: Brain-blood plasma distribution in vivo. The settings on record: rat, 10 mg/kg intravenously, 2 hr post-dose. Also on record: species or system Sprague-Dawley rats. As for the experimental part:
5-Amino-anthra(9,1-cd)isothiazol-6-one was administered intravenously (10 mg/kg) into the veins of Sprague-Dawley rats. After 2 hr, blood samples were obtained from the animals and their vascular systems were perfused with approximately 100 mL of saline to rid their brains of blood. The brains were removed from the animals, weighed, and homogenized in a 50 mL conical tube containing 10 equivalents (w/v) of methanol/saline (1:1) using a Tissue Tearer (Fischer Scientific). The homogenized material was extracted by adding 600 μL of cold methanol to 250 μL of brain homogenate vortexed for 30 sec and subjected to centrifugation for 5 min. After centrifugation, 600 μL of the resulting supernatant was transferred to a clean tube and evaporated at room temperature under reduced pressure to provide a pellet. […] The brain homogenate analysis samples, plasma analysis samples, and standard analysis samples were analyzed and compared using HPLC by injecting 100 μL of a sample onto a 5 μm C-18 Luna column (4.6 mm×150 mm, commercially available from Phenomenex of Torrance, Calif.) and eluting at 1 mL/min with a linear gradient of 30% aqueous acetonitrile containing 0.1% trifluoroacetic acid to 90% aqueous acetonitrile containing 0.1% trifluoroacetic acid over 8 minutes and holding at 90% aqueous acetonitrile containing 0.1% trifluoroacetic acid for 3 min. with absorbance detection at 450 nm. […]

The values below come from US20060122179A1, “Methods and compositions using JNK inhibitors for treatment and management of central nervous system injury” (priority 2004, published 2006).

Each structure is given as a SMILES string.

For `Nc1ccc2snc3c2c1C(=O)c1ccccc1-3` [5-amino-anthra(9,1-cd)isothiazol-6-one], the “protection of dopaminergic neurons from 6-OHDA ([3H]dopamine uptake)” value in data set [1] is “protects rat ventral mesencephalan neurons from the toxic effects of 6-OHDA”. Moreover, the “solubility in aqueous media” value in data set [2] was “limited solubility”. For the same compound, in data set [3], the brain-drug concentration result is “approximately 65 nmole/g”.
